In article PMC11855827, “High-Throughput Screening of Five Compound Libraries for Anthelmintic Activity and Toxicity Leads to the Discovery of Two Flavonoid Compounds” (International Journal of Molecular Sciences, 2025):
Read-outs that look alike come from different tables or passages of the source.

Tested on: C. elegans
Assay: microbe, parasite or virus in culture
Conditions: Caenorhabditis elegans
[1] = 0 h, read-out: Percentage of motility inhibition 0 h, Table S2, C. elegans SS assay, 110 μM, 0 h, averages of 4 data points
[2] = 24 h, read-out: Percentage of motility inhibition 24 h, Table S2, C. elegans SS assay, 110 μM, 24 h, averages of 4 data points

Row | SMILES | inhibition at 110 µM [1] [%] | inhibition at 110 µM [2] [%]
1 | COC(=O)C1=CO[C@@H](O[C@@H]2O[C@H](CO)[C@@H](O)[C@H](O)[C@H]2O)[C@@H]2C(CO)=CC[C@H]12 [Geniposide] | 0 | 0
2 | O=C(O)C1=CO[C@@H](O[C@@H]2O[C@H](CO)[C@@H](O)[C@H](O)[C@H]2O)[C@@H]2C(CO)=CC[C@H]12 [Geniposidic acid] | 0 | 3
3 | O=c1c(-c2ccc(O)cc2)coc2cc(O)cc(O)c12 [Genistein] | 5 | 2
4 | O=c1c(-c2ccc(O)cc2)coc2cc(O[C@@H]3O[C@H](CO)[C@@H](O)[C@H](O)[C@H]3O)cc(O)c12 [Genistin] | 29 | 19
5 | COc1cc(O)c2c(=O)cc(-c3ccc(O)cc3)oc2c1 [Genkwanin] | 34 | 4
6 | C=C[C@@H]1C2=CCOC(=O)C2=CO[C@H]1O[C@@H]1O[C@H](CO)[C@@H](O)[C@H](O)[C@H]1O [Gentiopicroside] | 0 | 19
7 | CC(C)=CCC/C(C)=C/CO [Geraniol] | 0 | 3
8 | C=C1C[C@]23C[C@@]1(O)CC[C@H]2[C@@]12C=C[C@H](O)[C@@](C)(C(=O)O1)[C@H]2[C@@H]3C(=O)O [Gibberellic acid] | 17 | 22
9 | COc1cc(O)c2c(=O)cc(-c3ccc(OC)c(-c4c(O)cc(O)c5c(=O)cc(-c6ccc(O)cc6)oc45)c3)oc2c1 [Ginkgetin] | 13 | 16
10 | C[C@@H]1C(=O)O[C@H]2C[C@@]34[C@H]5C[C@@H](C(C)(C)C)[C@]36[C@@H](OC(=O)[C@@H]6O)O[C@@]4(C(=O)O5)[C@]21O [Ginkgolide A] | 2 | 8
11 | CC(C)=CCC[C@](C)(O[C@@H]1O[C@H](CO)[C@@H](O)[C@H](O)[C@H]1O)[C@H]1CC[C@]2(C)[C@@H]1[C@H](O)C[C@@H]1[C@@]3(C)CC[C@H](O)C(C)(C)[C@@H]3[C@@H](O)C[C@]12C [Ginsenoside F1] | 10 | 2
12 | CC(C)=CCC[C@](C)(O[C@@H]1O[C@H](CO)[C@@H](O)[C@H](O)[C@H]1O)[C@H]1CC[C@]2(C)[C@@H]1[C@H](O)C[C@@H]1[C@@]3(C)CC[C@H](O[C@@H]4O[C@H](CO)[C@@H](O)[C@H](O)[C@H]4O)C(C)(C)[C@@H]3CC[C@]12C [Ginsenoside F2] | 0 | 45
13 | CC(C)=CCC[C@](C)(O[C@@H]1O[C@H](CO[C@@H]2OC[C@H](O)[C@H](O)[C@H]2O)[C@@H](O)[C@H](O)[C@H]1O)[C@H]1CC[C@]2(C)[C@@H]1[C@H](O)C[C@@H]1[C@@]3(C)CC[C@H](O)C(C)(C)[C@@H]3[C@@H](O)C[C@]12C [Ginsenoside F3] | 2 | 34
14 | CC(C)=CCC[C@](C)(O[C@@H]1O[C@H](CO[C@H]2O[C@H](CO)[C@@H](O)[C@@H]2O)[C@@H](O)[C@H](O)[C@H]1O)[C@H]1CC[C@]2(C)[C@@H]1[C@H](O)C[C@@H]1[C@@]3(C)CC[C@H](O)C(C)(C)[C@@H]3[C@@H](O)C[C@]12C [Ginsenoside F5] | 43 | 17
15 | CC(C)=CCC[C@](C)(O[C@@H]1O[C@H](CO[C@@H]2O[C@H](CO)[C@@H](O)[C@H](O)[C@H]2O)[C@@H](O)[C@H](O)[C@H]1O)[C@H]1CC[C@]2(C)[C@@H]1[C@H](O)C[C@@H]1[C@@]3(C)CC[C@H](O[C@@H]4O[C@H](CO)[C@@H](O)[C@H](O)[C@H]4O[C@@H]4O[C@H](CO)[C@@H](O)[C@H](O)[C@H]4O)C(C)(C)[C@@H]3CC[C@]12C [Ginsenoside Rb1] | 4 | 0
16 | CC(C)=CCC[C@](C)(O[C@@H]1O[C@H](CO[C@@H]2OC[C@H](O)[C@H](O)[C@H]2O)[C@@H](O)[C@H](O)[C@H]1O)[C@H]1CC[C@]2(C)[C@@H]1[C@H](O)C[C@@H]1[C@@]3(C)CC[C@H](O[C@@H]4O[C@H](CO)[C@@H](O)[C@H](O)[C@H]4O[C@@H]4O[C@H](CO)[C@@H](O)[C@H](O)[C@H]4O)C(C)(C)[C@@H]3CC[C@]12C [Ginsenoside Rb2] | 7 | 0
17 | CC(C)=CCC[C@](C)(O[C@@H]1O[C@H](CO[C@@H]2OC[C@@H](O)[C@H](O)[C@H]2O)[C@@H](O)[C@H](O)[C@H]1O)[C@H]1CC[C@]2(C)[C@@H]1[C@H](O)C[C@@H]1[C@@]3(C)CC[C@H](O[C@@H]4O[C@H](CO)[C@@H](O)[C@H](O)[C@H]4O[C@@H]4O[C@H](CO)[C@@H](O)[C@H](O)[C@H]4O)C(C)(C)[C@@H]3CC[C@]12C [Ginsenoside Rb3] | 6 | 1
18 | CC(C)=CCC[C@](C)(O[C@@H]1O[C@H](CO[C@@H]2O[C@@H](CO)[C@H](O)[C@H]2O)[C@@H](O)[C@H](O)[C@H]1O)[C@H]1CC[C@]2(C)[C@@H]1[C@H](O)C[C@@H]1[C@@]3(C)CC[C@H](O[C@@H]4O[C@H](CO)[C@@H](O)[C@H](O)[C@H]4O[C@@H]4O[C@H](CO)[C@@H](O)[C@H](O)[C@H]4O)C(C)(C)[C@@H]3CC[C@]12C [Ginsenoside Rc] | 0 | 0
19 | CC(C)=CCC[C@](C)(O[C@@H]1O[C@H](CO)[C@@H](O)[C@H](O)[C@H]1O)[C@H]1CC[C@]2(C)[C@@H]1[C@H](O)C[C@@H]1[C@@]3(C)CC[C@H](O[C@@H]4O[C@H](CO)[C@@H](O)[C@H](O)[C@H]4O[C@@H]4O[C@H](CO)[C@@H](O)[C@H](O)[C@H]4O)C(C)(C)[C@@H]3CC[C@]12C [Ginsenoside Rd] | 4 | 4

Row | SMILES | inhibition at 110 µM [1] [%] | inhibition at 110 µM [2] [%]
20 | CC(C)=CCC[C@](C)(O[C@@H]1O[C@H](CO)[C@@H](O)[C@H](O)[C@H]1O)[C@H]1CC[C@]2(C)[C@@H]1[C@H](O)C[C@@H]1[C@@]3(C)CC[C@H](O)C(C)(C)[C@@H]3[C@@H](O[C@@H]3O[C@H](CO)[C@@H](O)[C@H](O)[C@H]3O[C@@H]3O[C@@H](C)[C@H](O)[C@@H](O)[C@H]3O)C[C@]12C [Ginsenoside Re] | 0 | 0
21 | CC(C)=CCC[C@](C)(O)[C@H]1CC[C@]2(C)[C@@H]1[C@H](O)C[C@@H]1[C@@]3(C)CC[C@H](O)C(C)(C)[C@@H]3[C@@H](O[C@@H]3O[C@H](CO)[C@@H](O)[C@H](O)[C@H]3O[C@@H]3O[C@H](CO)[C@@H](O)[C@H](O)[C@H]3O)C[C@]12C [Ginsenoside Rf] | 0 | 0
22 | CC(C)=CCC[C@](C)(O[C@@H]1O[C@H](CO)[C@@H](O)[C@H](O)[C@H]1O)[C@H]1CC[C@]2(C)[C@@H]1[C@H](O)C[C@@H]1[C@@]3(C)CC[C@H](O)C(C)(C)[C@@H]3[C@@H](O[C@@H]3O[C@H](CO)[C@@H](O)[C@H](O)[C@H]3O)C[C@]12C [Ginsenoside Rg1] | 0 | 0
23 | CC(C)=CCC[C@](C)(O)[C@H]1CC[C@]2(C)[C@@H]1[C@H](O)C[C@@H]1[C@@]3(C)CC[C@H](O)C(C)(C)[C@@H]3[C@@H](O[C@@H]3O[C@H](CO)[C@@H](O)[C@H](O)[C@H]3O[C@@H]3O[C@@H](C)[C@H](O)[C@@H](O)[C@H]3O)C[C@]12C [Ginsenoside Rg2] | 8 | 0
24 | CC(C)=CC/C=C(\C)[C@H]1CC[C@]2(C)[C@@H]1[C@H](O)C[C@@H]1[C@@]3(C)CC[C@H](O[C@@H]4O[C@H](CO)[C@@H](O)[C@H](O)[C@H]4O[C@@H]4O[C@H](CO)[C@@H](O)[C@H](O)[C@H]4O)C(C)(C)[C@@H]3CC[C@]12C [Ginsenoside Rg5] | 0 | 2
25 | CC(C)=CCC[C@](C)(O)[C@H]1CC[C@]2(C)[C@@H]1[C@H](O)C[C@@H]1[C@@]3(C)CC[C@H](O)C(C)(C)[C@@H]3[C@@H](O[C@@H]3O[C@H](CO)[C@@H](O)[C@H](O)[C@H]3O)C[C@]12C [Ginsenoside Rh1] | 0 | 9
26 | CC(C)=CCC[C@](C)(O)[C@H]1CC[C@]2(C)[C@@H]1[C@H](O)C[C@@H]1[C@@]3(C)CC[C@H](O[C@@H]4O[C@H](CO)[C@@H](O)[C@H](O)[C@H]4O)C(C)(C)[C@@H]3CC[C@]12C [Ginsenoside Rh2] | 34 | 38
27 | CC1(C)C=Cc2c(ccc3c2OC[C@@H](c2ccc(O)cc2O)C3)O1 [Glabridin] | 26 | 6
28 | CC(C)=CCc1cc([C@@H]2CC(=O)c3ccc(O)c(CC=C(C)C)c3O2)ccc1O [Glabrol] | 11 | 9
29 | COc1cc2c(cc1OC)-c1c(OC)c(OC)cc3c1[C@H](C2)N(C)CC3 [Glauci ne] | 0 | 11
30 | C=C1C(=O)[C@@]23[C@H](O)C[C@@H]4C(C)(C)C(=O)CC[C@@]4(C)[C@@H]2CC[C@@H]1[C@H]3O [Glaucocalyxin A] | 0 | 7
31 | N[C@H]1C(O)O[C@H](CO)[C@@H](O)[C@@H]1O (some centres unmarked) [Glucosamine] | 8 | 4
32 | COc1cc2c(=O)c(-c3ccc(O)cc3)coc2cc1O [Glycitein] | 0 | 0
33 | CC1(C)[C@@H](O[C@H]2O[C@H](C(=O)O)[C@@H](O)[C@H](O)[C@H]2O[C@@H]2O[C@H](C(=O)O)[C@@H](O)[C@H](O)[C@H]2O)CC[C@]2(C)[C@H]3C(=O)C=C4[C@@H]5C[C@@](C)(C(=O)O)CC[C@]5(C)CC[C@@]4(C)[C@]3(C)CC[C@@H]12 [Glycyrrhizic acid] | 0 | 0
34 | Cc1cc2c(C(C)C)c(O)c(O)c(C=O)c2c(O)c1-c1c(C)cc2c(C(C)C)c(O)c(O)c(C=O)c2c1O [Gossypol] | 0 | 26
35 | CN(C)Cc1c[nH]c2ccccc12 [Gramine] | 0 | 0
36 | C=C1C(=O)O[C@@H]2C[C@@]3(C)[C@@H](O)C[C@@H](O)C(=C)[C@@H]3C[C@H]12 [Granilin] | 4 | 13
37 | COC1=CC(=O)C[C@@H](C)[C@]12Oc1c(Cl)c(OC)cc(OC)c1C2=O [Griseofulvin] | 3 | 1
